Legend:
Format in all cases: cell-based
[1] = system: triple negative MDA-MB-231 breast cancer cells; assay: Nile red staining of lipid droplets (differentiation marker), MDA-MB-231 cells; settings: 72 hours
Description: (§1) FIGS. 8(A-B) illustrate images showing (A) MCF7 cells transfected with control or HEXIM1 siRNA or (B) MDA-MB-231 transfected with control or HEXIM1 expression vector treated with vehicle (DMSO), HMBA, or 4a1 for 72 hours. Lower panels show Western blot analyses of HEXIM1 expression in MDA-MB-231 cells transfected with control or expression vector for Flag-tagged HEXIM1.
(§2) Cells were stained with Nile red for lipid droplets (marker of cell differentiation). Briefly, the stock solution of Nile red 1 mg/ml in acetone was diluted in PBS (1:1000). The fixed cells (4% paraformaldehyde) were incubated with diluted Nile red for 5 minutes at room temperature, rinsed with PBS and observed for the presence of lipid droplets by confocal microscopy. Images were digitally captured using a Leica microscope (Leica Microsystems Inc, IL, USA).

[2] = system: p21 expression in prostate cancer LNCaP cells; assay: p21 expression by western blot, LNCaP cells; settings: 5 mM HMBA or 50 μM 4a1, 18 hours
Description: FIGS. 7(A-B) illustrate Western blots showing (A) MCF7 (control siRNA or HEXIM1 siRNA) and (B) LNCaP (control shRNA or HEXIM1 shRNA) cells treated with vehicle (DMSO), 5 mM HMBA, or 50 μM 4a1 for 18 hours.
(§3) Cell lysates were analyzed by western blot as previously described. Anti-HEXIM1 was generated in the Montano laboratory. Primary antibodies against p21 (C-19; cat# sc-397), cyclin D1 (HD11; cat# sc-246) and myc (9E10; cat# sc-40) were obtained from Santa Cruz Biotechnology. Anti-GAPDH was obtained from Millipore. Anti-HIF-1α was obtained from Oxy-cell, Bioresearch).
HMBA was investigated in a Phase II clinical trial due to its potent anti-cancer and cell differentiation activities. Moreover, the roles of HMBA, and potentially 4a1, as differentiating factors are advantageous for their therapeutic use when compared to cytotoxic agents. […] We also examined the ability of 4a1 to induce differentiation and the relative role of HEXIM1.

[3] = system: HEXIM1 expression in breast cancer MCF7 cells; assay: HEXIM1 protein expression in MCF7 cells; settings: 18 h
Description: (§4) FIGS. 5(A-C) illustrate (A) the structure of HMBA analog, 4a1, (B) a graph showing HEXIM1 protein expression of breast cancer MCF7 cells treated with vehicle, HMBA, or 4a1 for 18 h, and (C) Western blot analyses of HEXIM1 targets relative to the loading control (GAPDH) of the treated cells.
(§5) MCF7, MDA-MB-231, and LNCaP cells were obtained from the American Tissue Culture Collection, and were maintained as previously described. Construction of expression vectors for control miRNA or HEXIM1 miRNAs were described previously. MCF7 or LNCaP cells were transfected with expression vectors containing either the HEXIM1 miRNA insert or a control miRNA insert as previously described. Following blasticidin selection, cells expressing the highest level of GFP were flow-sorted and expanded. MDA-MB-231 cells were transfected with control or expression vector for Flag-tagged HEXIM1 as previously described. The tamoxifen resistant cells line (TOTR) was generated by serial passage of parental MCF7 cells in growth media supplemented with 1 uM trans-hydroxytamoxifen.
as §3, with “Anti-HIF-1α was obtained from Oxy-cell, Bioresearch).” left out

[4] = system: HEXIM1 expression in breast cancer MDA-MB-231 cells; assay: HEXIM1 expression in MDA-MB-231 cells
Description: as §4, §5
as §3, with “Anti-HIF-1α was obtained from Oxy-cell, Bioresearch).” left out

[5] = system: HEXIM1 expression in LNCaP prostate cancer cells; assay: HEXIM1 expression by western blot in LNCaP cells treated with HMBA analogs
Description: (§6) FIGS. 2(A-B) illustrate Western blots and a graph showing the effect of HMBA analogs on HEXIM1 expression. LNCaP cells were treated with vehicle, HMBA (5 mM) and its analogs at 500 μM for 24 h. Level of HEXIM1 (upper panel) and β-actin (lower panel) was analyzed by Western blot of cell extracts with HEXIM1 antibody and β-actin antibody respectively. The bands of HEXIM1 were quantified using ImageJ (NIH) and normalized to β-actin. The results are the representative of three independent experiments.
as §6, with “3(A-B)” for “2(A-B)”, “lower concentration” for “the effect”, “identified” for “its”, “100” for “500”
FIGS. 4(A-B) illustrate Western blots and a graph showing dose-dependent study of compound 4a1 and HMBA on HEXIM1 expression. Level of HEXIM1 (upper panel) and β-actin (lower panel) was analyzed by Western blot of cell extracts with HEXIM1 antibody and β-actin antibody respectively.
HMBA analogs described herein can be synthesized based on the HMBA scaffold and then selected for their ability to induce HEXIM1 expression in an in vitro cell assay. For example, the synthesized HMBA analogs can be administered to cells, such as LNCaP prostate cancer cells, and the level of HEXIM1 in such cells can be measured using western blot analyses. The level of HEXIM1 expression of cells that are treated with a potential HMBA analog can be compared to control cells treated without the HMBA analog or with HMBA. Control cells (untreated or treated with HMBA) can be assigned a relative HEXIM1 expression value. Induction or promotion of HEXIM1 expression is achieved when the HEXIM1 expression relative to the control is increased at least about 1%, 5%, 10%, 15%, 20%, 30%, 50%, 75%, 100%, 200%, or more.
The synthesis of the symmetrical and unsymmetrical derivatives is described in Scheme 1 and 2, respectively. For the symmetrical analogs, moieties A and C were kept identical. Besides the acetyl group of HMBA, methanesulfonyl group, propionyl group or butyryl group were introduced. In addition, a bulky benzoyl group was introduced. The active proton in the amide moiety was replaced with methyl group to generate a series of analogs with lower solubility. For the moiety B, various linkers such as 1,3-propylene, […] 1,4-cyclohexylene, 1,4-phenylene-bis(methylene), 1,4-cyclohexylene-bis(methylene) were tested for optimization. For the unsymmetrical analogs, the A and B moieties were kept the same as HMBA while the C moiety was modified with aryl or alkyl amide. A total of 32 compounds were synthesized, and these compounds were examined for their potency to induce HEXIM1 in LNCaP prostate cancer cells. HMBA (5 mM) was used as a positive control.
Therefore, these three compounds were screened at lower concentrations.

MCF7 cells = assay: Nile red staining of lipid droplets (differentiation marker), MCF7 cells; settings: 72 hours
Description: as §1, §2

With `COc1ccc(CC(=O)NCCCCCCNC(C)=O)cc1` [Compound 4a1] the “Cell differentiation (lipid droplets, Nile red)” value [1] was “induced differentiation”, the p21 expression [2] was “induction of p21 expression” and the “Potency of HEXIM1 induction compared to HMBA” value [3] was “increased potency”. The “Potency of HEXIM1 induction compared to HMBA” value [4] was “increased potency”, the “HEXIM1 expression compared to the vehicle treatment (cutoff 2.5 fold)” value ([5]; LNCaP cells, analogs at 500 μM, 24 h, western blot normalized to β-actin) was “did not reach the cutoff” and the “Dose-dependent study on HEXIM1 expression” value ([5]; western blot, FIG. 4) was “dose-dependently induced HEXIM1 expression”. For the same molecule, the “Cell differentiation (lipid droplets, Nile red)” value (MCF7 cells) was “induced differentiation”.
